# Measured values from patent US4122077A, “Somatostatin analogs” (American Home Products Corporation, priority 1977, dated 1978).
# Where a SMILES comes first, the peptide text is derived from it. Bridges are numbered along the chain shown (N, C = ends). [ ]: non-standard residue; d: D form.
# Tests used:
# growth hormone (GH) = assay: Suppression of growth hormone (duration of activity after sc injection); format: in vivo, rats; conditions: 1000 μg/kg. sc, rats
# Description: A subcutaneous (sc) injection of peptide solubilized or suspended in physiological saline, is given to Charles River CD® nonfasted male rats. Matched saline control solution sc injected rats serve as control animals so that every experimental rat is paired with a control rat. The rats are kept in separate cages and 20 minutes before the end of the test time period they are given an intraperitoneal (i.p.) injection of Nembutal® at a dose of 50 mg/kg. Blood samples are obtained by cardiac puncture and the plasma separated for the radioimmunoassay of growth hormone (GH) concentration (ng/ml.). Time periods after injection of 2, 4, 5, and 6 hours are generally used to test the duration of the activity of the peptide to suppress circulating peripheral GH levels. Comparisons between control and experimental GH values at each time are evaluated by the Student "t" test and statistical significance (p) at the 0.05 level or lower is used as the index of activity.
# growth hormone = assay: Suppression of growth hormone, glucagon and insulin (arginine-stimulated, nembutal rats): GH; format: in vivo; conditions: arginine challenge (table 5)
# Description: (§1) Albino male rats are arranged in three groups (nine rats/group) and injected i.p. with nembutal at 50mg/kg. 15 minutes after the nembutal injection they are injected s.c. according to group with (a) test compound, typically 10-2000 μg/kg.; (b) SRIF 200 μg/kg.; or (c) physiological saline. 10 minutes later 0.5 ml. of arginine (300 mg/ml., pH 7.2) is injected into the heart. The rats are decapitated 5 minutes after receiving the arginine, and the blood is collected into Trasylol-EDTA. Appropriate aliquots are then assayed for growth hormone, glucagon and insulin. […] Comparisons between control and experimental values are statistically evaluated by the analysis of variants method and statistical significance (p) at 0.05 or lower is used as the index of activity.
# insulin = assay: Suppression of growth hormone, glucagon and insulin (arginine-stimulated, nembutal rats): insulin; format: in vivo; conditions: arginine challenge
# Description: as §1
# glucagon = assay: Suppression of growth hormone, glucagon and insulin (arginine-stimulated, nembutal rats): glucagon; format: in vivo; conditions: arginine challenge
# Description: as §1
SMILES,"GH, 2 Hours (growth hormone (GH))","GH, 4 Hours (growth hormone (GH))",GH (growth hormone; 100 μg/kg. s.c.),Insulin (insulin; 100 μg/kg. s.c.),Glucagon (glucagon; 100 μg/kg. s.c.),GH (growth hormone; 200 μg/kg. s.c.),Insulin (insulin; 200 μg/kg. s.c.),Glucagon (glucagon; 200 μg/kg. s.c.),"GH, 5 Hours (growth hormone (GH); 5 hours)","GH, 6 Hours (growth hormone (GH); 6 hours)",GH (growth hormone; 25 μg/kg. s.c.),Insulin (insulin; 25 μg/kg. s.c.),Glucagon (glucagon; 25 μg/kg. s.c.)
"C[C@@H](O)[C@@H]1NC(=O)[C@H](Cc2ccccc2)NC(=O)[C@H]([C@@H](C)O)NC(=O)[C@H](CCCCN)NC(=O)[C@@H](Cc2c[nH]c3ccccc23)NC(=O)[C@H](Cc2ccccc2)NC(=O)[C@H](Cc2ccccc2)NC(=O)[C@@H](Cc2c[nH]c3ccccc23)NC(=O)[C@@H](CCCNC(=N)N)NC(=O)[C@@H](N)CSSC[C@@H](C(=O)O)NC(=O)[C@H](CO)NC1=O [D, L-Cysteinyl-D-Arginyl-D-Tryptophyl-L-Phenylalanyl-L-Phenylalanyl-D-Tryptophyl-L-Lysyl-L-Threonyl-L-Phenylalanyl-L-Threonyl-L-Seryl-L-Cysteine Cyclic (1-12)-Disulfide] (H-C[dR][dW]FF[dW]KTFTSC-OH; disulfide 1-12)",28 ± 3 ng/mL,11 ± 2 ng/mL,21 ± 2,35 ± 2 μU/ml.,53 ± 9 pg/mL,–,–,–,–,–,–,–,–
"C[C@@H](O)[C@@H]1NC(=O)[C@H](Cc2ccccc2)NC(=O)[C@H]([C@@H](C)O)NC(=O)[C@H](CCCCN)NC(=O)[C@@H](Cc2c[nH]c3ccccc23)NC(=O)[C@H](Cc2ccccc2)NC(=O)[C@H](Cc2ccccc2)NC(=O)[C@@H](Cc2c[nH]cn2)NC(=O)[C@@H](Cc2c[nH]cn2)NC(=O)[C@@H](N)CSSC[C@@H](C(=O)O)NC(=O)[C@H](CO)NC1=O [E, L-Cysteinyl-D-Histidyl-D-Histidyl-L-Phenylalanyl-L-Phenylalanyl-D-Tryptophyl-L-Lysyl-L-Threonyl-L-Phenylalanyl-L-Threonyl-L-Seryl-L-Cysteine Cyclic (1-12)-Disulfide] (H-C[dH][dH]FF[dW]KTFTSC-OH; disulfide 1-12)",36 ± 16 ng/mL,45 ± 10 ng/mL,–,–,–,34 ± 3,182 ± 18 μU/ml.,29 ± 12 pg/mL,–,–,–,–,–
"C[C@@H](O)[C@@H]1NC(=O)[C@H](CCCCN)NC(=O)[C@@H](Cc2c[nH]c3ccccc23)NC(=O)[C@H](Cc2ccccc2)NC(=O)[C@H](Cc2ccccc2)NC(=O)[C@@H](CCCNC(=N)N)NC(=O)[C@@H](Cc2ccc(O)cc2)NC(=O)[C@@H](N)CSSC[C@H](C(=O)O)NC(=O)[C@H](CO)NC(=O)[C@H]([C@@H](C)O)NC(=O)[C@H](Cc2ccccc2)NC1=O [F, L-Cysteinyl-D-Tryrosyl-D-Arginyl-L-Phenylalanyl-L-Phenylalanyl-D-Tryptophyl-L-Lysyl-L-Threonyl-L-Phenylalanyl-L-Threonyl-L-Seryl-D-Cysteine Cyclic (1-12)-Disulfide] (H-C[dY][dR]FF[dW]KTFTS[dC]-OH; disulfide 1-12)",113 ± 34 ng/mL,99 ± 11 ng/mL,11 ± 3,103 ± 24 μU/ml.,24 ± 5 pg/mL,–,–,–,–,–,–,–,–
"CC(C)C[C@H]1NC(=O)[C@@H](N)CSSC[C@@H](C(=O)O)NC(=O)[C@H](CO)NC(=O)[C@H]([C@@H](C)O)NC(=O)[C@H](Cc2ccccc2)NC(=O)[C@H]([C@@H](C)O)NC(=O)[C@H](CCCCN)NC(=O)[C@@H](Cc2c[nH]c3ccccc23)NC(=O)[C@H](Cc2ccccc2)NC(=O)[C@H](Cc2ccccc2)NC(=O)[C@@H](Cc2ccc(O)cc2)NC1=O [G, L-Cysteinyl-D-Leucyl-D-Tyrosyl-L-Phenylalanyl-L-Phenylalanyl-D-Trypotophyl-L-Lysyl-L-Threonyl-L-Phenylalanyl-L-Threonyl-L-Seryl-L-Cysteine Cyclic (1-12)-Disulfide] (H-C[dL][dY]FF[dW]KTFTSC-OH; disulfide 1-12)",84 ± 11 ng/mL,94 ± 23 ng/mL,29 ± 16,218 ± 44 μU/ml.,28 ± 16 pg/mL,–,–,–,93 ± 30 ng/mL,72 ± 68 ng/mL,–,–,–
"C[C@@H](O)[C@@H]1NC(=O)[C@H](CCCCN)NC(=O)[C@@H](Cc2c[nH]c3ccccc23)NC(=O)[C@H](Cc2ccccc2)NC(=O)[C@H](Cc2ccccc2)NC(=O)[C@@H](Cc2ccc(O)cc2)NC(=O)[C@@H](CCCNC(=N)N)NC(=O)[C@@H](N)CSSC[C@H](C(=O)O)NC(=O)[C@H](CO)NC(=O)[C@H]([C@@H](C)O)NC(=O)[C@H](Cc2ccccc2)NC1=O [H, L-Cysteinyl-D-Arginyl-D-Tyrosyl-L-Phenylalanyl-L-Phenylalanyl-D-Tryptophyl-L-Lysyl-L-Threonyl-L-Phenylalanyl-L-Threonyl-L-Seryl-D-Cysteine Cyclic (1-12)-Disulfide] (H-C[dR][dY]FF[dW]KTFTS[dC]-OH; disulfide 1-12)",75 ± 4 ng/mL,144 ± 21 ng/mL,–,–,–,–,–,–,–,–,23 ± 4,128 ± 11 μU/ml.,56 ± 6 pg/mL
"C[C@@H](O)[C@@H]1NC(=O)[C@H](Cc2ccccc2)NC(=O)[C@H]([C@@H](C)O)NC(=O)[C@H](CCCCN)NC(=O)[C@@H](Cc2c[nH]c3ccccc23)NC(=O)[C@H](Cc2ccccc2)NC(=O)[C@H](Cc2ccccc2)NC(=O)[C@@H](CCC(=O)O)NC(=O)[C@@H](Cc2ccc(O)cc2)NC(=O)[C@@H](N)CSSC[C@@H](C(=O)O)NC(=O)[C@H](CO)NC1=O [J, L-Cysteinyl-D-Tyrosyl-D-Glutamyl-L-Phenylalanyl-L-Phenylalanyl-D-Tryptophyl-L-Lysyl-L-Threonyl-L-Phenylalanyl-L-Threonyl-L-Seryl-L-Cysteine Cyclic (1-12)-Disulfide] (H-C[dY][dE]FF[dW]KTFTSC-OH; disulfide 1-12)",311 ± 68 ng/mL,179 ± 39 ng/mL,128 ± 24,263 ± 28 μU/ml.,45 ± 4 pg/mL,–,–,–,–,–,–,–,–
